According to PubChem BioAssay (NCI):
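Dose response: 5 concentrations. Exposure: 48 h. Format: 96-well plates. Endpoint: linear interpolation; highest concentration if not reached. Abbreviation: GI50, concentration required for 50% inhibition of growth. TGI: total growth inhibition.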

Assays:
Assay in all cases: NCI tumour cell line growth inhibition, 48 h
[1] = tested on: SK-OV-3 ovarian
[2] = tested on: UACC-62 melanoma
[3] = tested on: SNB-19 CNS
[4] = tested on: SF-539 CNS
[5] = tested on: MDA-MB-231 breast
[6] = tested on: NCI/ADR-RES ovarian
[7] = tested on: PC-3 prostate
[8] = tested on: HCC-2998 colon
[9] = tested on: IGROV1 ovarian
[10] = tested on: NCI-H522 lung
[11] = tested on: SK-MEL-28 melanoma
[12] = tested on: MDA-MB-435
[13] = tested on: HS 578T breast
[14] = tested on: SN12C renal
[15] = tested on: NCI-H23 lung
[16] = tested on: SNB-75 CNS
[17] = tested on: HOP-92 NSCLC
[18] = tested on: SW-620 colon
[19] = tested on: M14 melanoma
[20] = tested on: MALME-3M melanoma
[21] = tested on: HOP-62 NSCLC
[22] = tested on: OVCAR-5 ovarian
[23] = tested on: A549 NSCLC
[24] = tested on: LOX IMVI melanoma
[25] = tested on: SF-268 CNS
[26] = tested on: TK-10 renal
[27] = tested on: NCI-H226 lung
[28] = tested on: HT29 colon
[29] = tested on: RPMI-8226 leukemia
[30] = tested on: SF-295 CNS
[31] = tested on: EKVX NSCLC
[32] = tested on: SR leukemia
[33] = tested on: MCF7 breast
[34] = tested on: DU-145 prostate
[35] = tested on: MOLT-4 leukemia
[36] = tested on: 786-0 renal
[37] = tested on: CAKI-1 renal
[38] = tested on: U251 CNS
[39] = tested on: A498 renal
[40] = tested on: SK-MEL-2 melanoma
[41] = tested on: COLO 205 colon
[42] = tested on: UO-31 renal
[43] = tested on: OVCAR-4 ovarian
[44] = tested on: NCI-H460 lung
[45] = tested on: HCT-116 colon
[46] = tested on: KM12 colon
[47] = tested on: HL-60(TB) leukemia
[48] = tested on: T-47D breast
[49] = tested on: ACHN renal
[50] = tested on: K-562 leukemia
[51] = tested on: HCT-15 colon
[52] = tested on: OVCAR-3 ovarian
[53] = tested on: SK-MEL-5 melanoma

For `Cc1nc(NC(=O)CCCN2C(=O)c3cccc4cccc(c34)C2=O)sc1C(=O)Nc1cc(C(=O)NCCCN(C)C)n(C)c1`, the GI50 [1] was > 100 µM, the TGI [1] was > 100 µM and the GI50 [2] was > 100 µM. For the same molecule, the TGI [2] was > 100 µM, the GI50 [3] was > 100 µM and the TGI [3] was > 100 µM. The GI50 [4] was > 100 µM, the TGI [4] was > 100 µM and the GI50 [5] was > 100 µM. The TGI [5] was > 100 µM, the GI50 [6] was > 100 µM and the TGI [6] was > 100 µM. For the same molecule, the GI50 [7] was > 100 µM, the TGI [7] was > 100 µM and the GI50 [8] was > 100 µM. For the same molecule, the TGI [8] was > 100 µM, the GI50 [9] was > 100 µM and the TGI [9] was > 100 µM. For the same molecule, the GI50 [10] was > 100 µM, the TGI [10] was > 100 µM and the GI50 [11] was > 100 µM. For the same molecule, the TGI [11] was > 100 µM, the GI50 [12] was > 100 µM and the TGI [12] was > 100 µM. The GI50 [13] was > 100 µM, the TGI [13] was > 100 µM and the GI50 [14] was > 100 µM. For the same molecule, the TGI [14] was > 100 µM, the GI50 [15] was > 100 µM and the TGI [15] was > 100 µM. The GI50 [16] was > 100 µM, the TGI [16] was > 100 µM and the GI50 [17] was > 100 µM. For the same molecule, the TGI [17] was > 100 µM, the GI50 [18] was > 100 µM and the TGI [18] was > 100 µM. The GI50 [19] was > 100 µM, the TGI [19] was > 100 µM and the GI50 [20] was > 100 µM. The TGI [20] was > 100 µM, the GI50 [21] was > 100 µM and the TGI [21] was > 100 µM. The GI50 [22] was > 100 µM, the TGI [22] was > 100 µM and the GI50 [23] was > 100 µM. For the same molecule, the TGI [23] was > 100 µM, the GI50 [24] was > 100 µM and the TGI [24] was > 100 µM. For the same molecule, the GI50 [25] was > 100 µM, the TGI [25] was > 100 µM and the GI50 [26] was > 100 µM. The TGI [26] was > 100 µM, the GI50 [27] was > 100 µM and the TGI [27] was > 100 µM. For the same molecule, the GI50 [28] was > 100 µM, the TGI [28] was > 100 µM and the GI50 [29] was > 100 µM. The TGI [29] was > 100 µM, the GI50 [30] was > 100 µM and the TGI [30] was > 100 µM. For the same molecule, the GI50 [31] was > 100 µM, the TGI [31] was > 100 µM and the GI50 [32] was > 100 µM. The TGI [32] was > 100 µM, the GI50 [33] was > 100 µM and the TGI [33] was > 100 µM. For the same molecule, the GI50 [34] was > 100 µM, the TGI [34] was > 100 µM and the GI50 [35] was > 100 µM. For the same molecule, the TGI [35] was > 100 µM, the GI50 [36] was > 100 µM and the TGI [36] was > 100 µM. For the same molecule, the GI50 [37] was > 100 µM, the TGI [37] was > 100 µM and the GI50 [38] was > 100 µM. For the same molecule, the TGI [38] was > 100 µM, the GI50 [39] was > 100 µM and the TGI [39] was > 100 µM. The GI50 [40] was > 100 µM, the TGI [40] was > 100 µM and the GI50 [41] was > 100 µM. For the same molecule, the TGI [41] was > 100 µM, the GI50 [42] was > 100 µM and the TGI [42] was > 100 µM. The GI50 [43] was 94.8 µM, the TGI [43] was > 100 µM and the GI50 [44] was > 100 µM. For the same molecule, the TGI [44] was > 100 µM, the GI50 [45] was > 100 µM and the TGI [45] was > 100 µM. The GI50 [46] was > 100 µM, the TGI [46] was > 100 µM and the GI50 [47] was > 100 µM. For the same molecule, the TGI [47] was > 100 µM, the GI50 [48] was > 100 µM and the TGI [48] was > 100 µM. For the same molecule, the GI50 [49] was > 100 µM, the TGI [49] was > 100 µM and the GI50 [50] was > 100 µM. The TGI [50] was > 100 µM, the GI50 [51] was > 100 µM and the TGI [51] was > 100 µM. For the same molecule, the GI50 [52] was > 100 µM, the TGI [52] was > 100 µM and the GI50 [53] was > 100 µM. The TGI [53] was > 100 µM.
